Structures can show the parent of a compound that is named as a salt.
target: T1, apelin receptor (APJ) (Homo sapiens, UniProt P35414); assay: In vitro apelin agonist activity (methods of Giddings et al., Apelin-13 as positive control); format: cell-based; settings: in vitro apelin agonist activity, methods of Giddings et al., Apelin-13 as positive control; read-out: EC50 (nM) Ave
T1 sequence (P35414 1-380): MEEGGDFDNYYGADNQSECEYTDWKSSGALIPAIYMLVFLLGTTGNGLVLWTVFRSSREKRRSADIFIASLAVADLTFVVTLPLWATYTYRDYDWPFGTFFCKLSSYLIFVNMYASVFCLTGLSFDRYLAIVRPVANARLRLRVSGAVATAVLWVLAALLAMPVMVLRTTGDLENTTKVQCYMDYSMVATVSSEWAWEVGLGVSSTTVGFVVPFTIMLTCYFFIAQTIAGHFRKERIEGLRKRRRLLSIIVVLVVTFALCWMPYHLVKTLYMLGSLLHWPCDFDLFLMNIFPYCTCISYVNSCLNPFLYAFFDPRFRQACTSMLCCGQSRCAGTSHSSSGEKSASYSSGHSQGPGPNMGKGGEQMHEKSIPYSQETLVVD
Text: Characterization of the Apelin Agonist Activity of the Compounds
1:39-47, the contents of which are hereby incorporated by reference in its entirety. Using the methods described in Giddings et al. and Apelin-13 as a positive control.

SMILES	EC50
O=C(O)C[C@H](CCN1CCCC1)NC(=O)c1cc(-c2ccccc2C(F)(F)F)n(C2CCCC2)n1 [compound 499, (3S)-3-({1-cyclopentyl-5-[2-(trifluoromethyl)phenyl]-1H-pyrazol-3-yl}formamido)-5-(pyrrolidin-1-yl)pentanoic acid]	548 nM
CCC(CC)n1nc(C(=O)N[C@@H](CCN2CCCCC2)CC(=O)NC2CCC2)cc1-c1c(OC)cccc1OC [compound 357, (3S)-N-cyclobutyl-3-{[5-(2,6-dimethoxyphenyl)-1-(pentan-3-yl)-1H-pyrazol-3-yl]formamido}-5-(piperidin-1-yl)pentanamide]	> 10000 nM
COc1cccc(OC)c1-c1cc(C(=O)N[C@@H](CCC2CCCCC2)CC(=O)O)nn1CC1CCCCC1 [compound 648]	> 10000 nM
COc1cccc(OC)c1-c1cc(C(=O)N[C@@H](CCN2CCCCCC2)CC(=O)NC2CCC2)nn1C1CCCC1 [compound 324, (3S)-5-(azepan-1-yl)-N-cyclobutyl-3-{[1-cyclopentyl-5-(2,6-dimethoxyphenyl)-1H-pyrazol-3-yl]formamido}pentanamide]	107 nM
O=C(C[C@H](CCN1CCCCC1)NC(=O)c1cc(-c2ccsc2C(F)(F)F)n(C2CCCC2)n1)NC1CCC1 [compound 434]	641 nM
COc1cccc(OC)c1-c1cc(C(=O)N[C@@H](CC2CC2)C(=O)NC2CCC2)nn1C1CCCC1 [compound 376, (2S)-N-cyclobutyl-2-{[1-cyclopentyl-5-(2,6-dimethoxyphenyl)-1H-pyrazol-3-yl]formamido}-3-cyclopropylpropanamide]	> 10000 nM
COc1cccc(OC)c1-c1cc(C(=O)N[C@@H](CCc2ccccc2)CC(=O)NCc2nccs2)nn1C1CCCC1 [compound 382, (3S)-3-{[1-cyclopentyl-5-(2,6-dimethoxyphenyl)-1H-pyrazol-3-yl]formamido}-5-phenyl-N-(1,3-thiazol-2-ylmethyl)pentanamide]	3440 nM
CC1CCC(F)(F)CN1CC[C@@H](CC(=O)O)NC(=O)c1cc(-c2ccccc2C(C)(F)F)n(C2CCCC2)n1 (stereo partly drawn) [compound 607, (3S)-3-({1-cyclopentyl-5-[2-(1,1-difluoroethyl)phenyl]-1H-pyrazol-3-yl}formamido)-5-(5,5-difluoro-2-methylpiperidin-1-yl)pentanoic acid]	69 nM
CCN(C(=O)c1cc(-c2c(F)cccc2OC)n(C2CCCC2)n1)[C@@H](CCN1CCCCC1)CC(=O)NC1CCC1 [compound 345, (3S)-N-cyclobutyl-3-{1-[1-cyclopentyl-5-(2-fluoro-6-methoxyphenyl)-1H-pyrazol-3-yl]-N-ethylformamido}-5-(piperidin-1-yl)pentanamide]	> 10000 nM
CC1(F)CCCN(CC[C@@H](CC(=O)O)NC(=O)c2cc(-c3ccccc3C(F)(F)F)n(C3CCCC3)n2)C1 (stereo partly drawn) [compound 613, (3S)-3-({1-cyclopentyl-5-[2-(trifluoromethyl)phenyl]-1H-pyrazol-3-yl}formamido)-5-(3-fluoro-3-methylpiperidin-1-yl)pentanoic acid trifluoroacetate]	104 nM
O=C(N[C@@H](CCN1CCCC(F)(F)C1)Cc1nnn[nH]1)c1cc(-c2ncccc2C(F)(F)F)n(C2CCCC2)n1 [compound 641]	27 nM
COCCN(C)C(=O)C[C@H](CCN1CCCCC1)NC(=O)c1cc(-c2c(OC)cccc2OC)n(C2CCCC2)n1 [compound 334, (3S)-3-{[1-cyclopentyl-5-(2,6-dimethoxyphenyl)-1H-pyrazol-3-yl]formamido}-N-(2-methoxyethyl)-N-methyl-5-(piperidin-1-yl)pentanamide]	6570 nM
O=C(O)C[C@H](CCN1CCCCC1)NC(=O)c1cc(-c2ccccc2C(F)(F)F)n(C2CCCC2)n1 [compound 494, (3S)-3-({1-cyclopentyl-5-[2-(trifluoromethyl)phenyl]-1H-pyrazol-3-yl}formamido)-5-(piperidin-1-yl)pentanoic acid]	215 nM
O=C(O)C[C@H](CCN1C[C@H](F)[C@@H](F)C1)NC(=O)c1cc(-c2ccccc2C(F)(F)F)n(C2CCCC2)n1 [compound 582, (3S)-3-({1-cyclopentyl-5-[2-(trifluoromethyl)phenyl]-1H-pyrazol-3-yl}formamido)-5-[(3S,4S)-3,4-difluoropyrrolidin-1-yl]pentanoic acid]	109 nM
CC(F)(F)c1ccccc1-c1cc(C(=O)N[C@@H](CCN2CCCC(F)(F)C2)CC(=O)O)nn1C1CCCC1 [compound 432, (3S)-3-({1-cyclopentyl-5-[2-(1,1-difluoroethyl)phenyl]-1H-pyrazol-3-yl}formamido)-5-(3,3-difluoropiperidin-1-yl)pentanoic acid]	16 nM
O=C(O)C[C@H](CCC1CCCCC1)NC(=O)c1cc(-c2ccccc2C(F)(F)F)n(C2CCCC2)n1 [compound 484, (3S)-5-cyclohexyl-3-({1-cyclopentyl-5-[2-(trifluoromethyl)phenyl]-1H-pyrazol-3-yl}formamido)pentanoic acid]	1520 nM
COc1cccc(OC)c1-c1cc(C(=O)N[C@@H](CCNCc2ccncc2)CC(=O)O)nn1C1CCCC1 [compound 310, (3S)-3-{[1-cyclopentyl-5-(2,6-dimethoxyphenyl)-1H-pyrazol-3-yl]formamido}-5-[(pyridin-4-ylmethyl)amino]pentanoic acid]	> 10000 nM
COc1cccc(Cl)c1-c1cc(C(=O)N[C@@H](CCN2CCCCC2)CC(=O)NC2CCC2)nn1C1CCCC1 [compound 370, (3S)-3-{[5-(2-chloro-6-methoxyphenyl)-1-cyclopentyl-1H-pyrazol-3-yl]formamido}-N-cyclobutyl-5-(piperidin-1-yl)pentanamide]	1030 nM
O=C(CCNC(=O)c1cc(-c2ccccc2C(F)(F)F)n(C2CCCC2)n1)Nc1nccs1 [compound 449, 3-({1-cyclopentyl-5-[2-(trifluoromethyl)phenyl]-1H-pyrazol-3-yl}formamido)-N-(1,3-thiazol-2-yl)propanamide]	12700 nM
O=C(O)C[C@H](CCN1CC2CCC(C1)C2(F)F)NC(=O)c1cc(-c2ccccc2C(F)(F)F)n(C2CCCC2)n1 [compound 606, (3S)-3-({1-cyclopentyl-5-[2-(trifluoromethyl)phenyl]-1H-pyrazol-3-yl}formamido)-5-{8,8-difluoro-3-azabicyclo[3.2.1]octan-3-yl}pentanoic acid]	310 nM
CN(C(=O)C[C@H](CCN1CCCC(F)(F)C1)NC(=O)c1cc(-c2ccccc2C(F)(F)F)n(C2CCCC2)n1)c1ncco1 [compound 451, (3S)-3-({1-cyclopentyl-5-[2-(trifluoromethyl)phenyl]-1H-pyrazol-3-yl}formamido)-5-(3,3-difluoropiperidin-1-yl)-N-methyl-N-(1,3-oxazol-2-yl)pentanamide]	27 nM
CN(C(=O)C[C@H](CCN1CCOCC1)NC(=O)c1cc(-c2ccccc2C(F)(F)F)n(C2CCCC2)n1)c1nccs1 [compound 495, (3S)-3-({1-cyclopentyl-5-[2-(trifluoromethyl)phenyl]-1H-pyrazol-3-yl}formamido)-N-methyl-5-(morpholin-4-yl)-N-(1,3-thiazol-2-yl)pentanamide]	165 nM
O=C(C[C@H](CCN1C2CCCC1CC2)NC(=O)c1cc(-c2ccccc2C(F)(F)F)n(C2CCCC2)n1)NC1CCC1 [compound 498, (3S)-5-{8-azabicyclo[3.2.1]octan-8-yl}-N-cyclobutyl-3-({1-cyclopentyl-5-[2-(trifluoromethyl)phenyl]-1H-pyrazol-3-yl}formamido)pentanamide]	105 nM
CCCn1nc(C(=O)N[C@@H](CCN2CCCC(F)(F)C2)CC(=O)O)cc1-c1ccccc1C(F)(F)F [compound 580, (3S)-5-(3,3-difluoropiperidin-1-yl)-3-({1-propyl-5-[2-(trifluoromethyl)phenyl]-1H-pyrazol-3-yl}formamido)pentanoic acid]	718 nM
Cc1nnc(C[C@H](CCN2CCCC(F)(F)C2)NC(=O)c2cc(-c3ccccc3Cl)n(C3CCCC3)n2)[nH]1 [compound 458, 5-(2-chlorophenyl)-1-cyclopentyl-N-[(2S)-4-(3,3-difluoropiperidin-1-yl)-1-(5-methyl-4H-1,2,4-triazol-3-yl)butan-2-yl]-1H-pyrazole-3-carboxamide]	261 nM
CC1(C)CC(F)(F)CN1CC[C@@H](CC(=O)O)NC(=O)c1cc(-c2ccccc2C(F)(F)F)n(C2CCCC2)n1 [compound 612, (3S)-3-({1-cyclopentyl-5-[2-(trifluoromethyl)phenyl]-1H-pyrazol-3-yl}formamido)-5-(4,4-difluoro-2,2-dimethylpyrrolidin-1-yl)pentanoic acid]	231 nM
NNC(=O)C[C@H](CCc1ccc(F)cc1)NC(=O)c1cc(-c2ccccc2C(F)(F)F)n(C2CCCC2)n1 [compound 464]	1040 nM
O=C(O)C[C@H](CCNC1(C(F)(F)F)CCCC1)NC(=O)c1cc(-c2ccccc2C(F)(F)F)n(C2CCCC2)n1 [compound 615, (3S)-3-({1-cyclopentyl-5-[2-(trifluoromethyl)phenyl]-1H-pyrazol-3-yl}formamido)-5-{[1-(trifluoromethyl)cyclopentyl]amino}pentanoic acid trifluoroacetate]	353 nM
O=C(O)C[C@H](CCN1C(=O)CCC1=O)NC(=O)c1cc(-c2ccccc2C(F)(F)F)n(C2CCCC2)n1 [compound 643, (3S)-3-({1-cyclopentyl-5-[2-(trifluoromethyl)phenyl]-1H-pyrazol-3-yl}formamido)-5-(2,5-dioxopyrrolidin-1-yl)pentanoic acid]	182 nM
